{"source": "paper PMC10600239", "about": "“Selective MCL-1 inhibitor ABBV-467 is efficacious in tumor models but is associated with cardiac troponin increases in patients” (Communications Medicine, 2023)", "key": {"[1]": {"assay": "Anesthetized dog cardiovascular safety pharmacology", "assay_type": "in vivo", "conditions": "anesthetized beagle, IV 1, 3 and 10 mg/kg", "source_text": "(§1) ABBV-467 was profiled in safety pharmacology studies in anesthetized (non-Good Laboratory Practice [GLP]) and telemetry-instrumented conscious (GLP) dog cardiovascular assays (Supplementary Table S6).\n(§2) Supplementary Table S6: Maj or findings in safety pharmac ology cardiovascular studies c onduc ted with ABBV- […]\n(§3) Species/Strain Route of Concentrations Sex and N Results\n(§4) Administration or Doses per Group […]\n(§5) Anesthetized IV 1, 3, and Male No effects up to a plasma concentration dog 10 m g/ k gN=4 o f 16 .83 µg/mL on […]\n(§6) aged 8-12 months • Heart rate\n(§7) • Systemic vascular resistance\n(§8) At 67 .23 mg/m L, an increase in heart rate and decrease in systemic vascular\n(§9) Conscious IV 0, 0.3, 1, and Male No effects on blood pressure, heart dog 3 mg/kg N=5–6a rate, or ECG parameters at any dose beagle (plasma concentration of 6.53 µg/mL at (aged 8-12 months 3-m g/ k g do s e )\n(§10) ECG, electrocardiogram; IC50, half maximal inhibitory concentration; IV, intravenous; QTcV, QT interval correct ed accor ding to the Van de Water formula. No animals or data were excl uded from analysis . […] Healthy dogs, as determined by veterinary physical examination and clinical pathology, were selected for study based on availability without explicit randomization. […] Power analysis has shown a group size of 6 can statistically detect an approximately 20 % alteration in measured parameters w ith α =0.0 5. […]"}, "[2]": {"assay": "Conscious telemetry-instrumented dog cardiovascular safety pharmacology", "assay_type": "in vivo", "conditions": "conscious beagle, IV, at 3-mg/kg dose", "source_text": "as §1, §2, §3, §4, §5, §6, §7, §8, §9, §10"}, "[3]": {"biological_target": "T1, monkey MCL1 (Macaca mulatta, UniProt F7HUE9)", "T1 construct": "rhesus monkey (iso4, NM_001 1089 3 7, AA 171-327); made in house; host or cells: E. coli BL21(DE3)-T1R", "T1 sequence (F7HUE9 171-327)": "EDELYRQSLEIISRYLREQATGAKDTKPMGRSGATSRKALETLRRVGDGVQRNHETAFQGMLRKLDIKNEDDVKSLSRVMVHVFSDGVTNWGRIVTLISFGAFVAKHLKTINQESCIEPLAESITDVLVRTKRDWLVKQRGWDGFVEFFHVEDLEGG", "assay": "TR-FRET binding assay, MCL-1 orthologs", "design": "species or system Monkey Macaca sp.", "procedure": "Binding affinities for MCL-1, BCL-2, BCL-XL, BCL-W, and BCL2-A1 were determined using a time-resolved fluorescence resonance energy transfer (FRET) assay. Test compounds were serially diluted in DMSO starting at […] (20× starting concentration; 100% DMSO followed by a 1:10 dilution of the compound DMSO plate into assay buffer); 10 µL of the compound in 10% DMSO was then transferred into a 384-well plate (low-volume Corning #3673 assay plate). Glutathione S-transferase (GST)-tagged recombinant BCL-2, BCL-XL, MCL-1, BCL-W, or BCL2-A1 protein (1 nM each) were mixed with 100 nM Oregon Green™-labeled f-BAK peptide probe and 1 nM Tb-labeled anti-GST antibody were mixed. Then 10 µL of a 2× protein/probe/antibody mix was added to each well of increasing concentrations of test compound in assay buffer (20 mM potassium phosphate, pH 7.6, 50 mM NaCl, 1 mM ethylenediaminetetraacetic acid disodium salt dihydrate, 0.05% pluronic acid F-68, 1 mM DL-dithiothreitol) at room temperature (final concentrations listed in Supplementary Table S2). […] Fluorescence was measured on the EnVision™ (Perkin Elmer) using a 340/35-nm excitation filter and 520/525- (F-Bak) and 495/510-nm (Tb-labeled anti-glutathione S-transferase [GST] antibody) emission filters. Dissociation constants were determined using Wang’s equation[35]. […]\nAmino acid sequence homology determined with NCBI BLAST (http://blast.ncbi.nlm.nih.gov). […]"}}, "data": [{"compound": "Cc1c(Cl)c2c(Cl)c(C)c1-c1c(-c3ccc(F)cc3)sc3ncnc(c13)O[C@@H](C(=O)O)Cc1cc(ccc1OCc1ccnc(-c3ccc(OC[C@H]4COCCO4)cc3)n1)OC[C@@H](CN1CCN(C)CC1)O2", "note": "[ABBV-467]", "values": [{"measurement": "plasma concentration up to which no effects on blood pressure, heart rate, contractility, systemic vascular resistance, cardiac output, QTcV, QRS, PR interval", "setting": "[1]", "result": "16 .83 µg/mL"}, {"measurement": "plasma concentration with no effects on blood pressure, heart rate, or ECG parameters", "setting": "[2]", "result": 6530, "unit": "ng/mL"}, {"measurement": "Ki", "setting": "[3]", "result": "< 0.1", "unit": "nM"}]}]}
